In PubChem BioAssay (NCI):
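How tested: cells in 96-well plates exposed to compound for 48 hours at five concentrations. GI50: concentration for 50% inhibition of growth. At the TGI there is no net growth.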

Assays:
Assay in all cases: inhibition of tumour cell growth, NCI panel, 48 h
LOX IMVI melanoma = test system: LOX IMVI melanoma
NCI-H226 lung = test system: NCI-H226 lung
T-47D breast = test system: T-47D breast
KM12 colon = test system: KM12 colon
HOP-62 NSCLC = test system: HOP-62 NSCLC
DU-145 prostate = test system: DU-145 prostate
SNB-19 CNS = test system: SNB-19 CNS
EKVX NSCLC = test system: EKVX NSCLC
UO-31 renal = test system: UO-31 renal
SK-MEL-28 melanoma = test system: SK-MEL-28 melanoma
A549 NSCLC = test system: A549 NSCLC
MDA-MB-231 breast = test system: MDA-MB-231 breast
NCI/ADR-RES ovarian = test system: NCI/ADR-RES ovarian
HS 578T breast = test system: HS 578T breast
RXF 393 renal = test system: RXF 393 renal
SK-MEL-5 melanoma = test system: SK-MEL-5 melanoma
HOP-92 NSCLC = test system: HOP-92 NSCLC
HT29 colon = test system: HT29 colon
IGROV1 ovarian = test system: IGROV1 ovarian
PC-3 prostate = test system: PC-3 prostate
OVCAR-4 ovarian = test system: OVCAR-4 ovarian
ACHN renal = test system: ACHN renal
TK-10 renal = test system: TK-10 renal
OVCAR-3 ovarian = test system: OVCAR-3 ovarian
SF-268 CNS = test system: SF-268 CNS
SW-620 colon = test system: SW-620 colon
SK-MEL-2 melanoma = test system: SK-MEL-2 melanoma
RPMI-8226 leukemia = test system: RPMI-8226 leukemia
CAKI-1 renal = test system: CAKI-1 renal
M14 melanoma = test system: M14 melanoma
UACC-257 melanoma = test system: UACC-257 melanoma
NCI-H522 lung = test system: NCI-H522 lung
MCF7 breast = test system: MCF7 breast
NCI-H460 lung = test system: NCI-H460 lung
UACC-62 melanoma = test system: UACC-62 melanoma
HCC-2998 colon = test system: HCC-2998 colon
MDA-MB-435 = test system: MDA-MB-435
786-0 renal = test system: 786-0 renal
SF-539 CNS = test system: SF-539 CNS
OVCAR-5 ovarian = test system: OVCAR-5 ovarian
SR leukemia = test system: SR leukemia
HCT-116 colon = test system: HCT-116 colon
OVCAR-8 ovarian = test system: OVCAR-8 ovarian
CCRF-CEM leukemia = test system: CCRF-CEM leukemia
COLO 205 colon = test system: COLO 205 colon
SNB-75 CNS = test system: SNB-75 CNS
A498 renal = test system: A498 renal
SN12C renal = test system: SN12C renal
HL-60(TB) leukemia = test system: HL-60(TB) leukemia
SF-295 CNS = test system: SF-295 CNS
K-562 leukemia = test system: K-562 leukemia
HCT-15 colon = test system: HCT-15 colon
BT-549 breast = test system: BT-549 breast
MOLT-4 leukemia = test system: MOLT-4 leukemia
NCI-H23 lung = test system: NCI-H23 lung

CC(=O)OC1CC2C(C)(C)C(=O)C=C[C@]2(C)C2CC[C@]3(C)C(OCC(=O)[C@H]3c3ccoc3)[C@]12C (stereo not given in full)
GI50 (LOX IMVI melanoma): 3.94 µM
TGI (LOX IMVI melanoma): 14.9 µM
GI50 (NCI-H226 lung): 11.8 µM
TGI (NCI-H226 lung): 31.4 µM
GI50 (T-47D breast): 2.97 µM
TGI (T-47D breast): 15.4 µM
GI50 (KM12 colon): 3.77 µM
TGI (KM12 colon): 12.3 µM
GI50 (HOP-62 NSCLC): 8.29 µM
TGI (HOP-62 NSCLC): 21.6 µM
GI50 (DU-145 prostate): 3.89 µM
TGI (DU-145 prostate): 19.8 µM
GI50 (SNB-19 CNS): 6.53 µM
TGI (SNB-19 CNS): 21.2 µM
GI50 (EKVX NSCLC): 18 µM
TGI (EKVX NSCLC): > 100 µM
GI50 (UO-31 renal): 10.1 µM
TGI (UO-31 renal): 22.6 µM
GI50 (SK-MEL-28 melanoma): 4.63 µM
TGI (SK-MEL-28 melanoma): 18.5 µM
GI50 (A549 NSCLC): 6.28 µM
TGI (A549 NSCLC): 23.1 µM
GI50 (MDA-MB-231 breast): 8.99 µM
TGI (MDA-MB-231 breast): 29.4 µM
GI50 (NCI/ADR-RES ovarian): 5.07 µM
TGI (NCI/ADR-RES ovarian): 22.9 µM
GI50 (HS 578T breast): 19.4 µM
TGI (HS 578T breast): > 100 µM
GI50 (RXF 393 renal): 4.43 µM
TGI (RXF 393 renal): 18.8 µM
GI50 (SK-MEL-5 melanoma): 11.5 µM
TGI (SK-MEL-5 melanoma): 28 µM
GI50 (HOP-92 NSCLC): 10.7 µM
TGI (HOP-92 NSCLC): 35.5 µM
GI50 (HT29 colon): 2.76 µM
TGI (HT29 colon): 11.6 µM
GI50 (IGROV1 ovarian): 7.83 µM
TGI (IGROV1 ovarian): 34.9 µM
GI50 (PC-3 prostate): 3.88 µM
TGI (PC-3 prostate): 17.1 µM
GI50 (OVCAR-4 ovarian): 4.2 µM
TGI (OVCAR-4 ovarian): 17.2 µM
GI50 (ACHN renal): 13.4 µM
TGI (ACHN renal): 31.4 µM
GI50 (TK-10 renal): 10.4 µM
TGI (TK-10 renal): 35.7 µM
GI50 (OVCAR-3 ovarian): 5.56 µM
TGI (OVCAR-3 ovarian): 22.9 µM
GI50 (SF-268 CNS): 2.82 µM
TGI (SF-268 CNS): 10.5 µM
GI50 (SW-620 colon): 11.1 µM
TGI (SW-620 colon): 39.3 µM
GI50 (SK-MEL-2 melanoma): 13.8 µM
TGI (SK-MEL-2 melanoma): 42.3 µM
GI50 (RPMI-8226 leukemia): 2.46 µM
TGI (RPMI-8226 leukemia): 6.8 µM
GI50 (CAKI-1 renal): 3.58 µM
TGI (CAKI-1 renal): 23.9 µM
GI50 (M14 melanoma): 12.4 µM
TGI (M14 melanoma): 27.3 µM
GI50 (UACC-257 melanoma): 2.51 µM
TGI (UACC-257 melanoma): 15 µM
GI50 (NCI-H522 lung): 3.15 µM
TGI (NCI-H522 lung): 10.1 µM
GI50 (MCF7 breast): 6.6 µM
TGI (MCF7 breast): 35.7 µM
GI50 (NCI-H460 lung): 3.93 µM
TGI (NCI-H460 lung): 15.2 µM
GI50 (UACC-62 melanoma): 5.89 µM
TGI (UACC-62 melanoma): 21.7 µM
GI50 (HCC-2998 colon): 11.3 µM
TGI (HCC-2998 colon): 24.7 µM
GI50 (MDA-MB-435): 2.53 µM
TGI (MDA-MB-435): 8.58 µM
GI50 (786-0 renal): 4.66 µM
TGI (786-0 renal): 21.7 µM
GI50 (SF-539 CNS): 15.2 µM
TGI (SF-539 CNS): 31.3 µM
GI50 (OVCAR-5 ovarian): 23.9 µM
TGI (OVCAR-5 ovarian): 46.2 µM
GI50 (SR leukemia): 2.27 µM
TGI (SR leukemia): 14.5 µM
GI50 (HCT-116 colon): 3.42 µM
TGI (HCT-116 colon): 11.4 µM
GI50 (OVCAR-8 ovarian): 8.3 µM
TGI (OVCAR-8 ovarian): 27.6 µM
GI50 (CCRF-CEM leukemia): 4.06 µM
TGI (CCRF-CEM leukemia): 16.3 µM
GI50 (COLO 205 colon): 1.91 µM
TGI (COLO 205 colon): 8.48 µM
GI50 (SNB-75 CNS): 4.68 µM
TGI (SNB-75 CNS): 17.1 µM
GI50 (A498 renal): 12.7 µM
TGI (A498 renal): 29.7 µM
GI50 (SN12C renal): 8.64 µM
TGI (SN12C renal): 28.6 µM
GI50 (HL-60(TB) leukemia): 3.11 µM
TGI (HL-60(TB) leukemia): 17.8 µM
GI50 (SF-295 CNS): 16.5 µM
TGI (SF-295 CNS): 48.6 µM
GI50 (K-562 leukemia): 2.25 µM
TGI (K-562 leukemia): 7.04 µM
GI50 (HCT-15 colon): 4.19 µM
TGI (HCT-15 colon): 15.8 µM
GI50 (BT-549 breast): 8.63 µM
TGI (BT-549 breast): 57.8 µM
GI50 (MOLT-4 leukemia): 3.62 µM
TGI (MOLT-4 leukemia): 22.1 µM
GI50 (NCI-H23 lung): 8.66 µM
TGI (NCI-H23 lung): 26.5 µM
